# Tests used:
# [1] = tested on: CATIE patients; assay: Kaplan-Meier survival (no hospitalization event) analysis, SULT4A1-1 negative vs positive; format: in vivo, human; conditions: FIG. 8
# Description: A Kaplan-Meier survival analysis was performed to determine whether there was a difference between the survival (hospitalization) rates for the SULT4A1-1 negative and SULT4A1-1 positive patient populations treated with each of the atypical antipsychotics. Survival plots model the fraction of the population that survived (i.e., no hospitalization event) as a function of time.
# [2] = tested on: CATIE patients with schizophrenia of European ancestry; assay: CATIE Phase I percent change of PANSS from baseline (LOCF), linear model with haplotype and drug therapy; format: in vivo, human; conditions: Table 18
# Excerpt: Genotype and phenotype data for the CATIE trial were recently made available to qualified researchers through The NIMH Center for Collaborative Genetic Studies on Mental Disorders. The inventors evaluated data for 417 CATIE patients with schizophrenia self reported as having exclusively European ancestry. This same patient population was described in a recent study by Sullivan and coworkers, which confirmed that there is no hidden stratification in the sample (Sullivan et al., 2008).
# The CATIE clinical data set included baseline PANSS scores based on clinical assessments prior to initiation of the assigned therapy, but following the washout period for any patients previously on antipsychotic medication. Follow up PANSS data for the CATIE trial were collected at each visit as described in detail by others (Stroup et al., 2003). Briefly, the first visit was after one month of treatment, and subsequent visits were at somewhat irregular intervals of approximately three months for up to a total 18 months or until discontinuation of treatment, whichever came first.
# For all subsequent analyses, the inventors focused on the single haplotype, designated SULT4A1-1. EM algorithm haplotypes were assigned to each patient using HelixTree software (Version 6.4.1; Golden Helix, Bozeman, Mont.), and each individual was scored as being positive or negative for the presence of the haplotype. The inventors assigned SULT4A1-1 haplotype status to those individuals for which EM algorithm assignment could be made with error probabilities of <1%. This included a total of 395 patients from the CATIE study. With the exception of four of the 395 patients in the CATIE study, SULT4A1-1 haplotype status could be assigned with error probabilities of <1×10-5.
# Since follow-up on subjects was not done at uniform time intervals, analysis was done using the last observation for each patient in treatment Phase I of the trial as the measure of response (last observation carried forward, LOCF). Main effect and interaction terms between the SULT4A1-1 haplotype and drug therapy were included in the linear model. A pre-determined set of contrasts for differences in percent change PANSS by haplotype within each drug therapy (three comparisons) and by drug therapy within each haplotype (six comparisons) were evaluated, with adjustment for multiple-comparisons using the step-up false-discovery rate (FDR) controlling procedure (Benjamini and Hochberg, 1995). A sub-analysis omitting those patients who were randomized to the same antipsychotic drug therapy was also conducted. […]
compound,measurement,setting,value
OCCOCCN1CCN(C2=Nc3ccccc3Sc3ccccc32)CC1 [Quetiapine],Difference between survival (no hospitalization) rates of SULT4A1-1 negative and SULT4A1-1 positive patients,[1],significant difference
same,Difference in percent change in PANSS score,"[2]; Complete Sample, SULT4A1-1+ patients, labelled drug vs Risperidone",−1.0%
same,Difference in percent change in PANSS score,"[2]; Complete Sample, same drug, SULT4A1-1+ vs SULT4A1-1−",−5.4%
same,Difference in percent change in PANSS score,"[2]; Patients Randomized to a Different Medication, SULT4A1-1+ patients, labelled drug vs Risperidone",−4.6%
same,Difference in percent change in PANSS score,"[2]; Patients Randomized to a Different Medication, same drug, SULT4A1-1+ vs SULT4A1-1−",−6.8%
